Patent publication US8629180B2, “Antiseptic agent composition” (Taiyo Corporation, priority 2009, dated 2014)

Experiments:
[1] = tested on: S. aureus; experiment: Antiseptic and bactericidal effect found by the applicant (background); format: cell-based; conditions: background statement, the present applicant has found
[2] = tested on: E. coli; experiment: as above; format: cell-based; conditions: background statement, the present applicant has found

In the case of glycerin ricinoleic acid monoester, the “antiseptic and bactericidal effects on S. aureus (in words)” value [1] is reported as “exerts antiseptic and bactericidal effects” and the “antiseptic and bactericidal effect on E. coli (in words)” value [2] is reported as “almost no antiseptic and bactericidal effect”.
